What was measured:
Jurkat T cells = test: Screening of candidate PTD-β-galactosidase fusion proteins for transduction; type: cell-based; conditions: fusion with β-galactosidase
Source text: Based on these two hypotheses and requisites, we searched the gene bank. With the factor that the conventional PTDs have lysines and arginines abundantly, we selected about 10,000 primary candidate genes. Among them, 500 genes were chosen by applying the requisites of signal peptide, and 100 genes of the 500 genes were confirmed as to have alanine and valine. Finally, 20 genes were selected by applying the factors required for the transcription factors, and then the transduction efficiencies were tested therefor. In addition, fusion proteins of each of these candidate PTDs and β-galactosidase were expressed and purified, and the functions of these proteins were detected using Jurkat T cells.

[1] = tested on: HUVEC, HeLa, 293 and Jurkat cells; test: Transduction of fusion protein across cell membrane, β-galactosidase staining on slides; type: cell-based; conditions: 0.5 μM, 30 min at 37° C., HeLa, 293, Jurkat cells
Method: HUVEC (ATCC:CRL-1730) (2×10^5), HeLa (ATCC:CCL-2) (2×10^5), and 293 (ATCC:CRL-1573) (2×10^5), which were incubated in 10% FBS (Fetal Bovine Serum) of DMEM, were respectively transferred to Lab-tek II chamber slides. Jurkat cells (ATCC:CRL-10915) (2×10^5) incubated in 10% EBS RPMI were transferred to poly-L-lysin coated slides. Each of the slides was treated with the purified 0.5 μM of Mph-1-β-galactosidase for 30 min at 37° C. in 5% CO2 incubator. And the supernatants were removed from the slides. The incubation mixtures were washed using ice-cold PBS four times and then were solidified with 2% formaldehyde solution for 10 min. After removing the solidified solutions, the mixtures were washed again using ice-cold PBS four times. Subsequently, the respective mixtures were treated with 700 μl of β-galactosidase staining solution (Roche. Colo.) for 45 min at 37° C. in 5% CO2 incubator. Following the staining, the mixtures were washed with ice-cold PBS four times after removing the supernatants. Next, the mixtures were mounted with 70% glycerol on the microscope slides.

Substance | transduction ability (Jurkat T cells) | transduction across the cell membranes (β-galactosidase staining) [1]
Mph-1-BTM: amino acid sequence 858 to 868 of Mph-1, a mouse transcription factor (SEQ ID NO:1) (YARVRRRGPRR; Biomolecule transduction motif) | unexpectedly significant transduction ability | 
β-gal: β-galactosidase reporter protein alone, without transduction peptide |  | not transduced at all

Reference: patent US7700109B2, “Biomolecule transduction motif Mph-1-BTM and the use thereof” (ForHumanTech. Co., Ltd., priority 2002, dated 2010)
